Where a name gives a salt, the structure may show the parent alone. Read-outs that look alike come from different tables or passages of the source.
Columns and labels:
Type in all cases: biochemical
[1] = target: T1, recombinant human DAO (diamine oxidase) (Homo sapiens, UniProt P19801); experiment: Activity evaluation on recombinant human DAO (Amplex Red/HRP-coupled assay, 1 mM putrescine substrate); details: read-out: Inhibitory Activity (IC50, nM) DAO
T1 construct: purchased R&D systems
T1 sequence (P19801 20-751): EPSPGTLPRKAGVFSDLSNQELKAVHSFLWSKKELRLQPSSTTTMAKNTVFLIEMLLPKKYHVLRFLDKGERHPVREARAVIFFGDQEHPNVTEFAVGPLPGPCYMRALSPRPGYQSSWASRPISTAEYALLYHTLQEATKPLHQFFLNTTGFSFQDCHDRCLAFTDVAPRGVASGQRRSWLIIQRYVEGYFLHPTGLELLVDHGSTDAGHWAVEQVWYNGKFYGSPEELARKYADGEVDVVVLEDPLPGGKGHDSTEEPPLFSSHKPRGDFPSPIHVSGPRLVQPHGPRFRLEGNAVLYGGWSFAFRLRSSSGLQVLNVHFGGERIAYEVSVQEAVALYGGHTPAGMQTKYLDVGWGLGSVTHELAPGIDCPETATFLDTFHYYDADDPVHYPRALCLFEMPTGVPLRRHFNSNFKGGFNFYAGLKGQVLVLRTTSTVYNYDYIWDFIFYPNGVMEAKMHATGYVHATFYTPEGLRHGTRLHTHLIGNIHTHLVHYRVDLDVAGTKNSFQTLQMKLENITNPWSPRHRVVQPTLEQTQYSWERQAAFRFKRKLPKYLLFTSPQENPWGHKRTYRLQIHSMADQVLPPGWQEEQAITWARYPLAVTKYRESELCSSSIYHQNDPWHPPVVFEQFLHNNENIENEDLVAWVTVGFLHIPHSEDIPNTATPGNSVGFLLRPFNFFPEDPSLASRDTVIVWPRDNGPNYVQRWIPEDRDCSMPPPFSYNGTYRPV
Outline: (§1)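 Compounds preincubated 30 min at 37 °C with enzyme in 50 mM sodium phosphate pH 7.4 (final DMSO <1%, 8-point 1:3 dilutions); reaction started with 200 uM Amplex Red, 1 U/mL HRP and substrate (MAO-A 0.5 mM tyramine, MAO-B 1 mM benzylamine, DAO 1 mM putrescine). Resorufin fluorescence (ex 544/em 590 nm) followed over 1-2 h; IC50 from four-parameter logistic fit.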

[2] = target: T2, recombinant human MAO-A (monoamine oxidase-A) (Homo sapiens, UniProt P21397); experiment: Activity evaluation on recombinant human MAO-A (Amplex Red/HRP-coupled assay, 0.5 mM tyramine substrate); details: read-out: Inhibitory Activity (IC50, nM) MAO-A
T2 construct: purchased Sigma-Aldrich
T2 sequence (P21397 1-527): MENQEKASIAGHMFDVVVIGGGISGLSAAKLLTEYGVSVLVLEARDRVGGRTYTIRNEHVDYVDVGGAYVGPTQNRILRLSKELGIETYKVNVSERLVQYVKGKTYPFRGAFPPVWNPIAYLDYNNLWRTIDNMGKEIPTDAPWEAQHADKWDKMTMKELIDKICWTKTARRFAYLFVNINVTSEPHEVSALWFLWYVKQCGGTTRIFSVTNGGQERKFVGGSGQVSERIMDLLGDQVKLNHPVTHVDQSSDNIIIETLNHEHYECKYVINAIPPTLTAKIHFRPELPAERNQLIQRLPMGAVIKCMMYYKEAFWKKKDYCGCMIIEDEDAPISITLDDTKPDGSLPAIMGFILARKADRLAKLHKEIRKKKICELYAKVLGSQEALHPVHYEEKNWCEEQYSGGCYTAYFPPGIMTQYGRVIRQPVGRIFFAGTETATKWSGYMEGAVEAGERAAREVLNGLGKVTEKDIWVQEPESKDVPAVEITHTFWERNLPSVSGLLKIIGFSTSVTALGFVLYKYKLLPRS
Outline: as §1

recombinant human VAP-1 = target: T3, recombinant human VAP-1 (Homo sapiens, UniProt Q16853); experiment: Activity evaluation on recombinant human VAP-1 (Amplex Red/HRP-coupled hydrogen peroxide assay, benzylamine substrate); details: read-out: Inhibitory Activity (IC50, nM) human VAP-1
T3 construct: purchased R&D systems
T3 sequence (Q16853 1-763): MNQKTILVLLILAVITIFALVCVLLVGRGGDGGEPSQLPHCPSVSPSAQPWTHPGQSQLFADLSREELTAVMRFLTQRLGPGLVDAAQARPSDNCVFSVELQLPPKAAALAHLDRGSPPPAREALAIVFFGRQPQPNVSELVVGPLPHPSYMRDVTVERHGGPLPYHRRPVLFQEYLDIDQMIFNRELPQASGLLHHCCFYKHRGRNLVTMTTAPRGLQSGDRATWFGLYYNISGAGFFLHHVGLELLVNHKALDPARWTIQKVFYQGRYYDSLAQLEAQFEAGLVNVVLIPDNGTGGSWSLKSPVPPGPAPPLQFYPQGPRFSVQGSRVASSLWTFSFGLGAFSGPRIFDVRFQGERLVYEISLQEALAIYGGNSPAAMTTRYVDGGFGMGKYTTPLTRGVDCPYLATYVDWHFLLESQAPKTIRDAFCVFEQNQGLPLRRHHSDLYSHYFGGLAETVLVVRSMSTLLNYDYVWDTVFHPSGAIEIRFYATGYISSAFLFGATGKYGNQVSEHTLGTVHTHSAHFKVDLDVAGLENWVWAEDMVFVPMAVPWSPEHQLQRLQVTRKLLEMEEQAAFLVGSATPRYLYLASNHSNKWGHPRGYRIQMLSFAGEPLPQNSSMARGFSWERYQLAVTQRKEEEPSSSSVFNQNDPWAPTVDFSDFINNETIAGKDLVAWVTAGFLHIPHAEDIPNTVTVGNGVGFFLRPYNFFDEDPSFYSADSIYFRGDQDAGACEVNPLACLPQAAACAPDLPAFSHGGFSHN
Outline: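 Recombinant human VAP-1 in 50 mM sodium phosphate pH 7.4 preincubated 30 min at 37 °C with compound (8-point 1:3 series, <1% DMSO), then 1 mM benzylamine, 200 uM Amplex Red, 1 U/mL HRP added. H2O2-derived resorufin fluorescence (ex 544/em 590) followed 1–2 h; IC50 from four-parameter fit of rate inhibition.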

[3] = target: T4, recombinant human MAO-B (monoamine oxidase-B) (Homo sapiens, UniProt P27338); experiment: Activity evaluation on recombinant human MAO-B (Amplex Red/HRP-coupled assay, 1 mM benzylamine substrate); details: read-out: Inhibitory Activity (IC50, nM) MAO-B
T4 construct: purchased Sigma-Aldrich
T4 sequence (P27338 1-520): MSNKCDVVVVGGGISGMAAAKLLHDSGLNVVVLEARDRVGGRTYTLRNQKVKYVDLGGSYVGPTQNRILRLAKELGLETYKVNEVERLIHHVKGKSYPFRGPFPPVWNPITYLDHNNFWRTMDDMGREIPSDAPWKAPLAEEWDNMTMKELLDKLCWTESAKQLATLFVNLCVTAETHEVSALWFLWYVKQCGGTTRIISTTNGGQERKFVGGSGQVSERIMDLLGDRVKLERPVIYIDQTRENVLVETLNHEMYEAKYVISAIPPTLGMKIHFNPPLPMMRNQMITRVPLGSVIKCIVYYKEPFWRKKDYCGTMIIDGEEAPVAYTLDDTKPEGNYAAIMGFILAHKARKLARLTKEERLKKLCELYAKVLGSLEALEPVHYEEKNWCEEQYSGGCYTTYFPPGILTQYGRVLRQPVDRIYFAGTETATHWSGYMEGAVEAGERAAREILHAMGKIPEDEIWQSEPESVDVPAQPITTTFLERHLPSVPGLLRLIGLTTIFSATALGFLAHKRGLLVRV
Outline: as §1

[4] = recombinant human VAP-1, 30 min preincubation at 37° C., 1 mM benzylamine
[5] = recombinant human VAP-1, benzylamine substrate

| IC50 ([1]; 1 mM putrescine) [nM] | IC50 ([2]; 0.5 mM tyramine) [nM] | IC50 (recombinant human VAP-1; [4]) [nM] | IC50 ([3]; 1 mM benzylamine) [nM] | IC50 ([1]; 1 mM putrescine substrate) [nM] | IC50 ([2]; 0.5 mM tyramine substrate) [nM] | IC50 (recombinant human VAP-1; [5]) [nM] | IC50 ([3]; 1 mM benzylamine substrate) [nM] | Compound |
| --- | --- | --- | --- | --- | --- | --- | --- | --- |
| 22 | > 100000 | 0.2 | 100 |  |  |  |  | Cc1cc(-c2ccc(-n3cnn(CC(CN)=C(F)F)c3=O)cn2)cc2c1NC(=O)CC2 [Example 43, 6-[5-[1-[2-(aminomethyl)-3,3-difluoro-allyl]-5-oxo-1,2,4-triazol-4-yl]-2-pyridyl]-8-methyl-3,4-dihydro-1H-quinolin-2-one Trifluoroacetate] |
| 27 | > 100000 | 0.4 | 3500 |  |  |  |  | Cc1cc(-n2cnn(CC(CN)=C(F)F)c2=O)cnc1-c1ccc2c(c1)CCC(=O)N2C [Example 81, 6-[5-[1-[2-(aminomethyl)-3,3-difluoro-allyl]-5-oxo-1,2,4-triazol-4-yl]-3-methyl-2-pyridyl]-1-methyl-3,4-dihydroquinolin-2-one Trifluoroacetate] |
| > 10000 | 4000 | 2.5 | 34000 |  |  |  |  | NCC(Cn1ncn(Cc2ccc(C#Cc3ccc4c(c3)NCCO4)s2)c1=O)=C(F)F [Example 164, 2-[2-(aminomethyl)-3,3-difluoro-allyl]-4-[[5-[2-(3,4-dihydro-2H-1,4-benzoxazin-6-yl)ethynyl]-2-thienyl]methyl]-1,2,4-triazol-3-one Ditrifluoroacetate] |
|  |  |  |  | 5600 | > 100000 | 2 | > 100000 | Cc1cc(-c2ccc3cc(Cn4cnn(CC(CN)=C(F)F)c4=O)sc3c2)cc2c1NC(=O)CC2 [Example 202, 6-[2-[[1-[2-(aminomethyl)-3,3-difluoro-allyl]-5-oxo-1,2,4-triazol-4-yl]methyl]benzothiophen-6-yl]-8-methyl-3,4-dihydro-1H-quinolin-2-one Trifluoroacetate] |
|  |  |  |  | 93700 | > 100000 | 4.3 | 5180 | NCC(Cn1ncn(Cc2cc3cc(-c4ccc5c(c4)OCO5)ccc3s2)c1=O)=C(F)F [Example 209, 2-[2-(aminomethyl)-3,3-difluoro-allyl]-4-[[5-(1,3-benzodioxol-5-yl)benzothiophen-2-yl]methyl]-1,2,4-triazol-3-one Trifluoroacetate] |
|  |  |  |  | 7700 | > 100000 | 0.6 | 3300 | Cc1cc(-c2cnc3[nH]ccc3c2)cnc1-n1cnn(CC(CN)=C(F)F)c1=O [Example 228, 2-[2-(aminomethyl)-3,3-difluoro-allyl]-4-[3-methyl-5-(1H-pyrrolo[2,3-b]pyridin-5-yl)-2-pyridyl]-1,2,4-triazol-3-one Trifluoroacetate] |
|  |  |  |  | 1810 | > 100000 | 2.5 | 68600 | CCn1cc(-c2cccc(Cn3cnn(CC(CN)=C(F)F)c3=O)c2)ccc1=O [Example 277, 5-[3-[[1-[2-(aminomethyl)-3,3-difluoro-allyl]-5-oxo-1,2,4-triazol-4-yl]methyl]phenyl]-1-ethyl-pyridin-2-one Trifluoroacetate] |
|  |  |  |  | > 100000 | > 100000 | 0.8 | > 100000 | CN(C)c1ccc(-c2cc(F)c(Cn3cnn(CC(CN)=C(F)F)c3=O)s2)cn1 [Example 303, 2-(2-(aminomethyl)-3,3-difluoroallyl)-4-((5-(6-(dimethylamino)pyridin-3-yl)-3-fluorothiophen-2-yl)methyl)-2,4-dihydro-3H-1,2,4-triazol-3-one trifluoroacetate] |
|  |  |  |  | 2700 | 20000 | 0.3 | 9000 | Cc1cc(-c2ccc3c(c2)NC(=O)CO3)cnc1-n1cnn(CC(CN)=C(F)F)c1=O [Example 221, 6-[6-[1-[2-(aminomethyl)-3,3-difluoro-allyl]-5-oxo-1,2,4-triazol-4-yl]-5-methyl-3-pyridyl]-4H-1,4-benzoxazin-3-one Trifluoroacetate] |
|  |  |  |  | > 100000 | > 100000 | 1.3 | > 100000 | Cc1c(-c2ccc3c(c2)CCC(=O)N3C)cccc1-n1cnn(CC(CN)=C(F)F)c1=O [Example 259, 6-[3-[1-[2-(aminomethyl)-3,3-difluoro-allyl]-5-oxo-1,2,4-triazol-4-yl]-2-methyl-phenyl]-1-methyl-3,4-dihydroquinolin-2-one Trifluoroacetate] |
|  |  |  |  | 8700 | > 100000 | 1.3 | > 100000 | CCn1cc(-c2csc(Cn3cnn(CC(CN)=C(F)F)c3=O)c2)ccc1=O [Example 193, 5-[5-[[1-[2-(aminomethyl)-3,3-difluoro-allyl]-5-oxo-1,2,4-triazol-4-yl]methyl]-3-thienyl]-1-ethyl-pyridin-2-one Trifluoroacetate] |
|  |  |  |  | 3080 | > 100000 | 0.5 | 2250 | CN1C(=O)CCc2cc(-c3cccc(Cn4cnn(CC(CN)=C(F)F)c4=O)c3)ccc21 [Example 276, 6-[3-[[1-[2-(aminomethyl)-3,3-difluoro-allyl]-5-oxo-1,2,4-triazol-4-yl]methyl]phenyl]-1-methyl-3,4-dihydroquinolin-2-one Trifluoroacetate] |

From patent publication US11168073B2, “3,3-difluoroallylamines or salts thereof and pharmaceutical compositions comprising the same” (YUHAN CORPORATION, priority 2018, dated 2021)
